Read-outs that look alike come from different tables or passages of the source.
Assays:
[1] = system: HCV genotype 1b replicon (Con1); settings: HCV1b replicon; Gao et al., Nature 2010; cited from earlier work
[2] = system: HCV genotype 2a replicon (JFH1); settings: Gao et al., Nature 2010; cited from earlier work
[3] = system: HCV genotype 1b replicon (Con1); assay: Inhibitory assay for HCV replicons (luciferase), genotype 1b Con1; type: cell-based, Hepatitis C virus; settings: HCV-1b replicon cell lines, single agent
Method: (2) Cell culture and HCV inhibitors. Huh-7.5 cells and their derivative HCV replicon cell lines were maintained in Dulbecco's modified Eagle's medium (DMEM, Gibco/BRL) that was supplemented with 100 U/mL penicillin-streptomycin (Gibco/BRL), 0.1 mM nonessential amino acid (NEAA, Gibco/BRL) and 10% fetal bovine serum (FBS) heat inactivated at 37° C. in 5% CO2. The HCV replicon cell lines were isolated from colonies as described in Lohman et al., Science 285:110-3 (1999). The culture medium for the replicon cells was additionally supplemented with 0.25 to 0.5 mg/mL of G418, unless specified otherwise. Compound DBPR110 and sofosbuvir were synthesized at the Institute of Biotechnology and Pharmaceutical Research at the National Health Research Institutes in Taiwan. Telaprevir (Lin et al., Antimicrob Agents Chemother, 50:1813-22 (2006)) was purchased from Acme Biosciences (Belmont, Calif.). The compounds were stored at −20° C. as 10 to 500 mM dimethyl sulfoxide (DMSO) stock solutions until the assay. IFN-α was purchased from Calbiochem (La Jolla, Calif.) and stored at −80° C.
(3) Inhibitory assay for HCV replicons. Cells were seeded at 1×10^4 (high-throughput screening assay) or 1×10^5 (regular assay) cells/well in 96- or 12-well plate, respectively, and incubated for 4 h. The medium was then aspirated and replaced with 0.1 (96-well plate) or 1 (12-well plate) mL of complete medium containing a single compound or combinations of compounds in serial concentration(s). The plates with compounds were incubated for 72 h and then assayed for luciferase expression (Promega). The EC50 of each compound was determined independently and used to determine the range of concentrations used for the combination experiments. All data are presented as the means±standard deviations (SD) from three independent experiments. The selectivity index (SI) was calculated as the ratio of the CC50 to the EC50.

Cytotoxicity assay (MTT) = type: cell-based; settings: human
Method: (§1) (4) Cytotoxicity assay. The sensitivity of the cell lines to inhibitors was examined using a 3-(4,5-Dimethylthiazol-2-yl)-2,5-diphenyltetrazolium bromide (MTT) assay. Briefly, Huh-7.5 cells were plated at a density of 1×10^5 cells per well in 12-well plates containing 1 mL of culture medium for 4 h. Serial dilutions of the compounds or DMSO (negative control) were added, and the plates were incubated for an additional 72 h. The MTT reagent was then added to each well, and the plates were incubated for 3 h at 37° C. in a humidified 5% CO2 atmosphere before reading at a wavelength of 563 nm using an ELISA plate reader. All data are presented as the means +/−SD from four independent experiments.

HCV genotype 1b replicon = assay: Inhibitor combination study (combination index, CalcuSyn); settings: at the concentrations used in the combination experiments
Huh-7.5 cells = assay: Cytotoxicity assay (MTT); type: cell-based; settings: HCV-1b replicon cell lines; single agent
Method: as §1

[4] = Hepatitis C virus, read-out: EC50
[5] = Hepatitis C virus, read-out: EC90
[6] = HCV-1b replicon cell lines, single agent, read-out: CC50

| Molecule | EC50 [1] [nM] | EC50 [2] [nM] | EC50 [3, 4] [nM] | EC90 [3, 5] [nM] | CC50 at 72 h (Cytotoxicity assay (MTT); [6]) [nM] | cytotoxicity (HCV genotype 1b replicon) | CC50 at 72 h (Cytotoxicity assay (MTT)) [nM] | EC50 [3] [IU/mL] | EC90 [3] [IU/mL] | CC50 (Huh-7.5 cells) |
| --- | --- | --- | --- | --- | --- | --- | --- | --- | --- | --- |
| COC(=O)N[C@H](C(=O)N1CCC[C@H]1c1nc(-c2ccc(-c3ccc(-c4c[nH]c([C@@H]5CCCN5C(=O)[C@@H](NC(=O)OC)C(C)C)n4)cc3)cc2)c[nH]1)C(C)C [BMS-790052] | 0.009 | 0.071 | – | – | – | – | – | – | – | – |
| CC(C)(C)NC(=O)N[C@H](C(=O)N1C[C@H]2[C@@H]([C@H]1C(=O)NC(CC1CCC1)C(=O)C(N)=O)C2(C)C)C(C)(C)C (stereo partly drawn) [Boceprevir, boceprevir, reference compound] | – | – | 361 ± 19.9 | 962 ± 21.5 | > 5000 | No cytotoxicity was observed | – | – | – | – |
| NC(=O)c1ncn([C@@H]2O[C@H](CO)[C@@H](O)[C@H]2O)n1 [Ribavirin, ribavirin, reference compound] | – | – | 20500 ± 3500 | 95000 ± 20100 | – | – | > 200000 | – | – | – |
| CC(C)OC(=O)[C@H](C)N[P@](=O)(OC[C@H]1O[C@@H](n2ccc(=O)[nH]c2=O)[C@](C)(F)[C@@H]1O)Oc1ccccc1 [Sofosbuvir, sofosbuvir, reference compound] | – | – | 91.5 ± 18.3 | 323 ± 66.1 | > 5000 | No cytotoxicity was observed | – | – | – | – |
| CCC[C@H](NC(=O)[C@@H]1[C@H]2CCC[C@H]2CN1C(=O)[C@@H](NC(=O)[C@@H](NC(=O)c1cnccn1)C1CCCCC1)C(C)(C)C)C(=O)C(=O)NC1CC1 [Telaprevir, telaprevir, reference compound] | – | – | 301.6 ± 2.8 | 912 ± 75.4 | > 5000 | No cytotoxicity was observed | – | – | – | – |
| IFN-α | – | – | – | – | – | No cytotoxicity was observed | – | 35.1±4.7 | 327.0 ± 0.01 | >2,000 IU/mL |
